The numbers were not newly measured in patent EP1566168A1, “Dermo-cosmetic compositions for depigmenting and use of it” (priority 2004, dated 2005), which cites them from elsewhere.

In one series the test system is peau. Conditions: applied to the skin.
For series [1] the following is noted: oil.

On to `CCCCCCCCCCCCCCCC(=O)OCc1cc(=O)c(OC(=O)CCCCCCCCCCCCCCC)co1` [acide dipalmitoylkojique, 2-palmitoyloxy 5-palmitoyloxy γ-pyrone], for which the propriétés irritantes result in the series on peau is listed as “dépourvu de propriétés irritantes”. For the same compound, the solubilité entry in series [1] is listed as “soluble dans l'huile”.
